The values below come from article PMC7067268, “Biosynthesis of plant tetrahydroisoquinoline alkaloids through an imine reductase route” (Chemical Science, 2019).

In general, kcat refers to the number of substrate molecules converted per active site and unit of time at saturation.

The test system of data set [1] is IR45. Briefly: imine reduction kinetics. As to conditions: read-out: IR45 / K m; NADPH-dependent.
For data set [2], the system named is IR45. Briefly: imine reduction kinetics. The settings on record: read-out: F190L-W191F / K m; NADPH-dependent.
In data set [3] the test system is IR45. Description: imine reduction kinetics. As to conditions: read-out: F190M-W191F / K m; NADPH-dependent.
Data set [4] relates to COc1cc2c(cc1OC)[C@H](c1ccc3c(c1)OCO3)NCC2. Briefly: purified protein. The settings on record: co-substrate S-adenosylmethionine.
Data set [5] relates to COc1ccc(C[C@@H]2NCCc3cc(OC)c(OC)cc32)cc1OC. Description: purified protein. As to conditions: co-substrate S-adenosylmethionine.

Where two headings read alike, the source gives them in different places.

Regarding `COc1ccc(CC2=NCCc3cc(OC)c(OC)cc32)cc1OC` [5a], the Km in the data set on IR45 [1] was determined as 518 µM; in the data set on IR45 [2] it was 353 µM; with IR45 [3], 178 µM.

Regarding `COc1cc2c(cc1OC)C(c1cc(OC)c(OC)c(OC)c1)=NCC2` [3a], in the data set on IR45 [2], the Km came to 372 µM.

For `COc1cc2c(cc1OC)C(c1ccc3c(c1)OCO3)=NCC2` [1a], the Km in the data set on IR45 [1] turned out to be 154 µM; in the data set with IR45 [2], 123 µM; in the data set on IR45 [3] it was 108 µM.

In the case of `COc1cc2c(cc1OC)C(Cc1ccccc1)=NCC2` [4a], the Km in the data set on IR45 [1] came out at 148 µM; with IR45 [2], 252 µM; in the data set on IR45 [3], 251 µM.

Consider “Coclaurine N-methyltransferase (CNMT) (Coptis japonica)”, for which, in data set [4], the Km came out at 806 ± 198 µM and the kcat amounted to 0.098 ± 0.031 s⁻¹. In data set [5], the Km came out at 807 ± 208 µM and the kcat was 0.296 ± 0.042 s⁻¹.

Regarding `COc1ccc(C2=NCCc3cc(OC)c(OC)cc32)cc1OC` [2a], in the data set on IR45 [2], the Km came to 307 µM.
